Earlier results in patent publication US12527793B2, “Pharmaceutical compositions” (Shenzhen Pharmacin Co., Ltd., priority 2020, dated 2026).

Settings: background statement

SMILES	Solubility in water
Cc1cn(-c2cc(NC(=O)c3ccc(C)c(Nc4nccc(-c5cccnc5)n4)c3)cc(C(F)(F)F)c2)cn1 [Nilotinib, 4-methyl-N-[3-(4-methyl-1H-imidazol-1-yl)-5-(trifluoromethyl)phenyl]-3-{[4-(pyridin-3-yl)pyrimidin-2-yl]amino}benzamide]	practically insoluble

Settings: source footnote 1: Pallicer et al., ADMET & DMPK 2(2) (2014) 107-114

SMILES	Experimental log P
O=c1cc(-c2ccc(O)cc2)oc2cc(O)cc(O)c12 [Apigenin]	3.02^1
CN(C)CCC(c1ccc(Br)cc1)c1ccccn1 (stereo not shown) [Brompheniramine]	2.88^1
CCCCN1CCCCC1C(=O)Nc1c(C)cccc1C (stereo not shown) [Bupivacaine]	3.41^1
Cc1ccc(-c2cc(C(F)(F)F)nn2-c2ccc(S(N)(=O)=O)cc2)cc1 [Celecoxib]	3.91^1
CN(C)CCC(c1ccc(Cl)cc1)c1ccccn1 (stereo not shown) [Chlorphenamine]	3.17^1
CN(C)CCCN1c2ccccc2Sc2ccc(Cl)cc21 [Chlorpromazine]	5.27^1
O=c1cc(-c2ccccc2)oc2cc(O)cc(O)c12 [Chrysin]	3.52^1
C=C[C@H]1CN2CC[C@H]1C[C@H]2[C@H](O)c1ccnc2ccccc12 [Cinchonidine]	2.6^1
CC(C)/N=c1\cc2n(-c3ccc(Cl)cc3)c3ccccc3nc-2cc1Nc1ccc(Cl)cc1 [Clofazimine]	6.3^1
CC(C)(Oc1ccc(Cl)cc1)C(=O)O [Clofibric acid]	2.57^1
COC(=O)[C@H](c1ccccc1Cl)N1CCc2sccc2C1 [Clopidogrel]	4.52^1
CCc1cc2c(s1)N(C)C(=O)CN=C2c1ccccc1Cl [Clotiazepam]	3.49^1
COc1ccc([C@@H]2Sc3ccccc3N(CCN(C)C)C(=O)[C@@H]2OC(C)=O)cc1 [Diltiazem]	2.84^1
CNCC[C@H](Oc1cccc2ccccc12)c1cccs1 [Duloxetine]	4.54^1
O=C(O)CCC(=O)c1ccc(-c2ccccc2)cc1 [Fenbufen]	3.2^1
O=C(O)c1ccccc1Nc1cccc(C(F)(F)F)c1 [Flufenamic acid]	5.19^1

SMILES	Experimental log P
CNCCC(Oc1ccc(C(F)(F)F)cc1)c1ccccc1 (stereo not shown) [Fluoxetine]	4.42^1
CCN(CC)CCN1C(=O)CN=C(c2ccccc2F)c2cc(Cl)ccc21 [Flurazepam]	3.94^1
CC(C(=O)O)c1ccc(-c2ccccc2)c(F)c1 (stereo not shown) [Flurbiprofen]	3.84^1
CCC1=C(C)CN(C(=O)NCCc2ccc(S(=O)(=O)NC(=O)N[C@H]3CC[C@H](C)CC3)cc2)C1=O [Glimepiride]	3.97^1
O=C(CCCN1CCC(O)(c2ccc(Cl)cc2)CC1)c1ccc(F)cc1 [Haloperidol]	3.82^1
COc1ccc([C@@H]2CC(=O)c3c(O)cc(O)cc3O2)cc1O [Hesperetin]	2.60^1
COc1ccc2c(c1)c(CC(=O)O)c(C)n2C(=O)c1ccc(Cl)cc1 [Indometacin]	4.1^1
O=C1C[C@@H](c2ccc(O)cc2)Oc2cc(O)cc(O)c21 [Naringenin]	2.52^1
OCCOCCN1CCN(C2=Nc3ccccc3Sc3ccccc32)CC1 [Quetiapine]	3.13^1
C=C[C@H]1C[N@@]2CC[C@H]1C[C@H]2[C@H](O)c1ccnc2ccc(OC)cc12 [Quinine]	2.64^1
CN(CCOc1ccc(CC2SC(=O)NC2=O)cc1)c1ccccn1 (stereo not shown) [Rosiglitazone]	3.1^1
CN[C@H]1CC[C@@H](c2ccc(Cl)c(Cl)c2)c2ccccc21 [Sertraline]	5.17^1
COc1cccc(C2(O)CCCCC2CN(C)C)c1 (stereo not shown) [Tramadol]	2.7^1
O=c1n(CCCN2CCN(c3cccc(Cl)c3)CC2)nc2ccccn12 [Trazodone]	2.82^1
COc1ccc(C(CN(C)C)C2(O)CCCCC2)cc1 (stereo not shown) [Venlafaxine]	3.05^1

Same assay, conditions: source footnote 5: experimental values listed on www.drugbank.ca

SMILES	Experimental log P
C=CC(=O)N1CCC[C@@H](n2nc(-c3ccc(Oc4ccccc4)cc3)c3c(N)ncnc32)C1 [Ibrutinib]	3.97 ^5
C[C@@H](Oc1cc(-c2cnn(C3CCNCC3)c2)cnc1N)c1c(Cl)ccc(F)c1Cl [crizotinib]	1.83 ^5
Cc1nc(Nc2ncc(C(=O)Nc3c(C)cccc3Cl)s2)cc(N2CCN(CCO)CC2)n1 [dasatinib]	1.8 ^5
CS(=O)(=O)CCNCc1ccc(-c2ccc3ncnc(Nc4ccc(OCc5cccc(F)c5)c(Cl)c4)c3c2)o1 [lapatinib]	5.4 ^5
CO[C@@H]1[C@H](N(C)C(=O)c2ccccc2)C[C@H]2O[C@]1(C)n1c3ccccc3c3c4c(c5c6ccccc6n2c5c31)C(=O)NC4 [midostaurin]	5.89 ^5
COC(=O)c1ccc2c(c1)NC(=O)/C2=C(\Nc1ccc(N(C)C(=O)CN2CCN(C)CC2)cc1)c1ccccc1 [nintedanib]	3.0 ^5
CNC(=O)c1cc(Oc2ccc(NC(=O)Nc3ccc(Cl)c(C(F)(F)F)c3)cc2)ccn1 [sorafenib]	3.8 ^5
CCCS(=O)(=O)Nc1ccc(F)c(C(=O)c2c[nH]c3ncc(-c4ccc(Cl)cc4)cc23)c1F [vemurafenib]	5.1 ^5
